| melting point [°C] | SMILES |
| --- | --- |
| 139 to 140 | Cc1oc(-c2ccccc2)nc1CCOc1ccc(CCC(N)=O)cc1 |
| 207 to 209 | COc1cccc(C(=O)Nc2ccc(N3CCN(CC(N)=O)CC3)cc2)c1-c1ccc(C(C)C)cc1 |
| 196 | C#CCOc1cc(OCC#C)c2c(=O)cc(-c3ccc(OC)c(OCC#C)c3)oc2c1 |
| 167 to 168 | O=C(O)CC1CCCc2c1n(Cc1ccc(Cl)cc1)c1ccc(C(F)(F)F)cc21 (stereo unspecified) |
| 187 to 189 | CN(C)C=CC(=O)c1c(-c2ccccc2Cl)nc2occn12 |
| 98 to 100 | CCOC(=O)/C=C/C=C(c1ccc(Cl)cc1)c1ccc(Cl)cc1 |
| 139 to 140 | COc1ccc2c(c1OC)CCC=C2C#N |
| 147 to 148 | O=C(Nc1ccc2[nH]c(=O)oc2c1)C(=O)N1CCC(Cc2ccc(Cl)cc2)CC1 |
| 110 to 125 | COC(=O)c1ccc(CCC(C=Cc2ccc(O)c(OC)c2)=NO)o1 |
| 160 to 162 | CC[C@H](NC(=O)OCC1c2ccccc2-c2ccccc21)[C@@H](O)C(=O)O |
| 120 to 123 | COc1cc(NC(SC)=C(C#N)S(=O)(=O)c2ccc(Cl)cc2)cc(OC)c1 |
| 178 to 181 | CCCCc1nc(C(O)(C(C)C)C(C)C)c(C(N)=O)n1Cc1ccc(-c2ccccc2C(=O)O)cc1 |
| 168 to 170 | COC(=O)NC(=O)Nc1ccc(OC)c(OC)c1 |
| 228 to 229 | Oc1ccc(-c2cc3cc(Br)ccc3o2)cc1 |
| 197 | COc1ccc2sc(C(=O)O)c(Oc3ccccc3)c2c1 |
| 55 to 56 | COC(=O)c1cc2c(nc1C)C(CO)CCCC2 (stereo unspecified) |
| 188 to 190 | Cc1ccc(CSC(=S)N2Cc3[nH]c4ccccc4c3CC2C(=O)O)cc1 (stereo unspecified) |
| 155 to 157 | CC(CCCN(C)c1ccccc1)NCC(O)c1ccc(O)c(C(N)=O)c1 (stereo unspecified) |
| 173 to 174 | CCc1nc(-c2cccc(C(=O)OC)c2)c(-c2ccnc(N)c2)s1 |
| 137 to 138 | CCc1noc(-c2cn(-c3cccc(OCc4ccc(Cl)cc4)c3)cn2)n1 |
| 282 to 283 | CCOC(=O)c1cn2ccc(NC(=O)c3cc4cc(C(F)(F)F)ccc4n3Cc3cccc(F)c3)cc2n1 |
| 159 to 160 | Cc1cccc(COc2cccc(OCc3coc(-c4ccc(F)cc4)n3)c2)c1C(=O)O |
| 151 to 152 | CCOC(=O)c1nnc(C(=O)OCC)c2c1[nH]c1ccccc12 |
| 164 to 166 | CCC(CC)(CC(=O)Nc1ccc2ccc(OCc3ccc4ccc(F)cc4n3)cc2c1)C(=O)O |
| 186 to 188 | CCNc1c(OC)cc(Cc2cnc(N)nc2N)cc1OC |
| 290 to 292 | Cc1ccc2c(c1)C=Cc1cc(C)ccc1C2c1cn(Cc2ccc(C(=O)O)o2)c(=O)[nH]c1=S |
| 146 | CCCOc1ccc(C(=O)Nc2ccc3cc(CN4CCCC4)cnc3c2C)c(F)c1 |
| 152 to 153 | COc1cc(COc2nn(-c3ccccc3)cc2/C=C/P(=O)(OC(C)C)OC(C)C)ccc1OCc1nc(-c2ccco2)oc1C |

The next lines start with the compound.

| SMILES | melting point [°C] |
| --- | --- |
| CN1CCSC1=NC(=Nc1ccccc1)N1CCCC1 | 160 to 162 |
| CSc1ccc(Nc2cscc2C#N)c([N+](=O)[O-])c1 | 167 to 169 |
| CCOC(=O)c1cn(C2CC2)c2cc(NCCO)c(F)cc2c1=O | 228 to 230 |
| CC1(C)CC(O)CC(C)(C)N1CC(O)c1ccccc1 (stereo unspecified) | 123 |
| CC(=O)n1c(=O)sc2c(Cl)cccc21 | 74 |
| CCOCC(=NO)C(C)(C)NCC(Cn1ccnc1[N+](=O)[O-])ONC(C)(C)C(CCn1ccnc1[N+](=O)[O-])=NO (stereo unspecified) | 105 to 107 |
| Cc1nc(Br)cnc1NS(=O)(=O)c1cccc2c(N(C)C)cccc12 | 171 to 172 |
| CC(C)c1ccc(-c2cc(-c3cccc(C(=O)O)c3)ccn2)cc1 | 247 to 249 |
| CN1Cn2ncc([N+](=O)[O-])c2-c2ccccc21 | 172 to 173 |
| O=S(=O)(c1ccc(Cl)cc1)N1c2ccccc2CCC1c1ccc(CN2CCSCC2)cc1 (stereo unspecified) | 134 to 136 |
| CC(C)c1cc2c(cc1C(SCC(=O)O)c1ccccc1)OCO2 (stereo unspecified) | 114 |
| Cc1nc2c(o1)CCc1ccccc1C2=O | 174 to 176 |
| O=C1NC(=O)N2Cc3ccccc3CC12 (stereo unspecified) | 225 to 231 |
| N#CCC1CC(=O)N(c2ccc(Cl)cc2)C1 (stereo unspecified) | 92 to 94 |
| COc1ccc(-n2c(-c3sc(NC(=O)c4ccccc4)nc3-c3ccccc3)nc3ccccc3c2=O)cc1 | > 275 |
| CCSc1nc(Cl)c2sc3nc(-c4ccccc4)cc(C)c3c2n1 | 150 to 154 |
| O=C(c1ccccc1)c1ccc[nH]1 | 76 to 77 |
| Brc1cc(Br)cc(Cc2cc(Br)cc(Br)c2)c1 | 196 |
| SCCC1c2ccccc2-c2ccccc21 | 38 to 40 |
| CC(C)(C)OC(=O)NCCCCCCNS(=O)(=O)c1ccc(Oc2ccccc2)cc1 | 77 to 78 |
| CN1CCc2cc(S(=O)(=O)Nc3cnc4ccc(Cl)cc4n3)ccc21 | 213 to 214 |
| c1ccc(C(N=C2CCCC2)c2ccccc2)cc1 | 96 to 100 |

| SMILES | melting point [°C] |
| --- | --- |
| CCc1cnc2ccnn2c1O | 247 to 248 |
| Nc1cc(Cl)c(I)c(Cl)c1 | 147 to 148 |
| CCC(=O)CS(=O)(=O)c1ccc(OS(=O)(=O)c2ccc(C)cc2)cc1 | 104 to 106 |
| O=S(=O)(c1ccc(Cl)cc1)C(c1cccnc1)c1cc(F)ccc1F (stereo unspecified) | 130 to 131 |
| O=C(O)c1cc2cc(Cl)ccc2nn1 | 207 to 208 |
| C=CCN1Cc2cscc2Nc2ccccc21 | 67 to 69 |
| Cn1cc(C2=C(c3c4n(c5ccccc35)CCCC(CNC(N)=N[N+](=O)[O-])C4)C(=O)NC2=O)c2ccccc21 (stereo unspecified) | 177 to 178 |
| Cc1ccc(S(=O)(=O)N2CCC(c3ccc4c(c3)C(=O)CCCC4)CC2)cc1 | 165 to 169 |
| Cc1ccc(C(=O)Nc2ccc(N3CCN(Cc4cccc(C#N)c4)CC3)cc2)c(-c2ccc(C(C)C)cc2)c1 | 167 to 169 |
| C#CC1(O)CCC2(C)C(CCC3C4CCC(C(C)=O)C4(C)C=CC32)C1 (stereo unspecified) | 147 to 150 |
| CC1c2ccccc2CCON1C(N)=O (stereo unspecified) | 128 to 129 |
| N#Cc1ccc(Nc2cccc(I)c2)c(N)c1 | 170 to 172 |
| Cc1ccccc1-c1nc(OCCN(C)C)ncc1N(C)C(=O)C(C)(C)c1cc(C(F)(F)F)cc(C(F)(F)F)c1 | 140 to 141 |
| Cc1ccc(-n2ncc(C(=O)Nc3ccc(N4CCC(N5CCOCC5)CC4)c(C#N)c3)c2C)cc1 | 243 |
| O=S(CCCCF)CCCCCOc1ccc(C2=C(c3ccccc3)CCCc3cc(O)ccc32)cc1 (stereo unspecified) | 233 |
| CN(C)c1nc(N)nc2c1sc(=O)n2C1OC(CO)C(O)C1O (stereo unspecified) | > 112 |
| COc1ccc(N(C(=O)CN2C(=O)C(Cc3n[nH]c4c3CCCC4)C(=O)N(c3ccccc3)c3ccccc32)C(C)C)cc1 (stereo unspecified) | 170 to 173 |
| c1ccc(CSc2cnccc2C2=NOCCO2)cc1 | 110 to 112 |
| CC(C)(C)Nc1cc(N2CCCNCC2)nc(NC(C)(C)C)n1 | 127 to 132 |
| C#CCNC1CCc2ccccc21 (stereo unspecified) | 39 to 41 |
| O=C(NC1CCCCNC1=O)c1cccnc1 (stereo unspecified) | 177 to 178 |
